Common to all, as to assay: DTP human tumour cell line panel, 48 h
For assay [1], the system named is SK-MEL-5 melanoma.
The test system of assay [2] is SF-539 CNS.
The subject of assay [3] is OVCAR-3 ovarian.
Assay [4] has as its system NCI-H226 lung.
Assay [5] relates to SF-268 CNS.
In assay [6] the test system is COLO 205 colon.
Assay [7] has as its system MOLT-4 leukemia.
The test system of assay [8] is RPMI-8226 leukemia.
The test system of assay [9] is IGROV1 ovarian.

The values below come from PubChem BioAssay (NCI).

The term TGI denotes the concentration at which net growth stops. High values mean less potent growth arrest, low ones more potent growth arrest. What is called GI50 is the concentration that inhibits growth by half.

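48-hour exposure; five concentrations; linearly interpolated endpoints. Abbreviation: GI50, concentration required for 50% inhibition of growth. TGI denotes the concentration required for complete inhibition of growth.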 A value given as a limit tells only on which side of the number the result lay.

`Cc1ccc(C2CC(c3ccc([N+](=O)[O-])cc3)=Nc3ccccc3S2)cc1` (stereo unspecified): the TGI is 38 µM in assay [1]; 71.9 µM in assay [2]; 99.7 µM in assay [3]; over 100 µM in assay [4]; over 100 µM in assay [5]; over 100 µM in assay [6]. Further, the figures for the TGI in assay [7], in assay [8] and in assay [9] were 69 µM, 44.9 µM and 87.5 µM, respectively.

`CCC1=C(C)/C(=C/c2[nH]c(C(Br)Br)c(CC)c2C)N=C1C(Br)Br`: the TGI in [1] is 32.1 µM; in [2], over 100 µM; in assay [3] it was over 100 µM; in assay [4], 90.1 µM; in assay [5], over 100 µM; in assay [6], 21 µM. The values for the TGI in assay [7], in assay [8] and in assay [9] were 27.4 µM, 39.9 µM and over 100 µM, respectively.

Take `O=C(O)C1CCc2nnc(-c3ccccc3)n21` (stereo unspecified): the TGI in assay [1], in assay [2], in [3], in assay [4], in assay [5] and in [6] was over 100 µM throughout. For the same compound, the TGI in assay [7], in [8] and in [9] was over 100 µM throughout.

Turning to `COc1c(C2=NC(C(C)C)CO2)ccc2ccccc12` (stereo unspecified), the TGI in assay [1] is 36.3 µM; in [2], over 100 µM; in assay [3] it was over 100 µM; in [4] it was over 100 µM; in assay [5], over 100 µM; in [6] it was over 100 µM. Further, the TGI was 50.3 µM in [7], 65.6 µM in assay [8] and over 100 µM in assay [9].

For `O=C1c2ccccc2C(=O)C2C1C1C(=O)c3ccccc3C(=O)C21` (stereo unspecified), the TGI in assay [1], in [2], in assay [3], in assay [5], in [6] and in [9] was over 100 µM in each case.

Turning to `CC1(C)C(c2ccccc2)C12CCC1(C2=O)C(c2ccccc2)C1(C)C` (stereo unspecified), the TGI in assay [1] came to 37.9 µM; in assay [2], 75.2 µM; in assay [3] it was 43.5 µM; in assay [4], 36.3 µM; in assay [5] it was 97.7 µM; in [6], 33.6 µM. The TGI is 37.2 µM in assay [7], 33.3 µM in assay [8] and over 100 µM in assay [9].

As to `Cc1c(C(=O)CC(=O)C(=O)Nc2c(C(C)C)cccc2C(C)C)[n+](=O)c2ccccc2n1[O-]`, the TGI worked out at 24.4 µM in assay [1]; 17.5 µM in [2]; 5.29 µM in assay [3]; 54.5 µM in [4]; 25.2 µM in assay [5]; 15.2 µM in assay [6]. Also, the total growth inhibition concentration (TGI) in assay [7] stood at 8.2 µM; in assay [8], 15.4 µM; in assay [9] it was 11.4 µM.

For `O=S1CSCS1` (stereo unspecified), the TGI in assay [1], in [2], in assay [3], in [4], in assay [5] and in assay [6] was over 100 µM each time. Also, the TGI in assay [7] and in assay [9] was over 100 µM each time.

Regarding `CCOC(=O)c1cc(/C=C/C(C)=C/C(=O)OC)oc1-c1ccccc1`, the TGI in [1], in assay [2], in [3], in assay [4], in [5] and in assay [6] was over 100 µM in each case. The TGI in assay [7], in [8] and in [9] was over 100 µM each time.

Consider `O=C(c1ccccc1)C(c1ccccc1)C1(O)C(=O)Nc2ccccc21` (stereo unspecified), for which the TGI in [1], in [2], in assay [3], in assay [4], in [5] and in assay [6] was over 100 µM in each case. In addition, the total growth inhibition concentration (TGI) in [7], in assay [8] and in assay [9] was over 100 µM each time.

Regarding `CCCN(CCCN)/[N+]([O-])=N\O`, the TGI in assay [1], in assay [2], in assay [3], in [4], in assay [5] and in assay [6] was over 100 µM in each case. The TGI in assay [7], in assay [8] and in [9] was over 100 µM in each case.

For the compound `Cc1nc2ccccc2c(=O)n1/N=C(\N=Nc1cc(Cl)ccc1Cl)c1cccc(-c2ccco2)c1`, the TGI in assay [1], in assay [2], in assay [3], in assay [4], in assay [5] and in [6] was over 100 µM in each case. Also, the TGI in assay [7], in assay [8] and in [9] was over 100 µM each time.

Turning to `COc1cc(=O)oc(/C=C/C=O)c1C`, the TGI is 38.4 µM in assay [1]; 34.2 µM in assay [2]; 33.4 µM in assay [3]; 90.9 µM in [4]; 28.2 µM in [5]; 31.6 µM in assay [6]. Moreover, the TGI in assay [7] was 77.3 µM; in [9] it was over 100 µM.

`COc1ccc(C2=Nc3ccccc3SC(C)C2)cc1` (stereo unspecified): the TGI in assay [2], in assay [3], in assay [4], in assay [5], in assay [6] and in [7] was over 100 µM throughout. Further, the TGI in assay [8] is 60.2 µM; in assay [9] it was over 100 µM.

For the compound `O=C(/C=C/C12c3ccccc3C(c3ccccc31)C1C(=O)N(c3ccccc3)C(=O)C12)c1ccc(Cl)cc1` (stereo unspecified), the GI50 was 1.95 µM in [1]; 1.69 µM in assay [2]; 2.04 µM in assay [4]; 4.56 µM in assay [5]; 1.79 µM in [6]; 0.759 µM in [7]. For the same compound, the values for the GI50 in assay [8] and in assay [9] were 1.16 µM and 2.1 µM, respectively. The TGI is 4.07 µM in assay [1]; 3.79 µM in assay [2]; 5.82 µM in [4]; over 100 µM in assay [5]; 3.58 µM in assay [6]; over 100 µM in [7]. Moreover, the values for the TGI in [8] and in assay [9] were 4.68 µM and 6.09 µM, respectively.
